{
  "source": "patent US20220160619A1",
  "about": "“Effervescent Drug Formulations” (Complete Medical Solutions, LLC, priority 2020, published 2022)",
  "origin": "cited, not measured here",
  "settings": "long-term metformin therapy in addition to dietary management",
  "data": [
    {"smiles": "CN(C)C(=N)N=C(N)N", "note": "[metformin]", "values": [
      {"measurement": "diabetic patients with cobalamin malabsorption", "value": 30, "unit": "%"}
    ]}
  ]
}
